Tests used:
Format in all cases: functional
Rattus norvegicus [1] = organism: Rattus norvegicus; assay: Antianxiety activity in Holtzman rat assessed as dose required to elicit increase in milk consumption; conditions: read-out: MED
Rattus norvegicus [2] = organism: Rattus norvegicus; assay: Anticonvulsant activity in rat assessed as protection against pentylenetetrazole-induced clonic seizures; conditions: read-out: MED
Rattus norvegicus [3] = organism: Rattus norvegicus; assay: Ratio of diazepam MED to compound MED for antianxiety activity in Holtzman rat

SMILES	minimal effective dose (Rattus norvegicus [1]) [mg/kg]	minimal effective dose (Rattus norvegicus [2]) [mg/kg]	Ratio (Rattus norvegicus [3])
Cc1nn(C)c2c1C(c1ccccc1F)=[N+]([O-])CC(=O)N2C	10	8	
CCn1nc(C)c2c1NC(=O)CN=C2c1ccccc1F	2.5	8	
CCCc1nn(C)c2c1C(c1ccccc1Cl)=NCC(=O)N2C	> 40	63	
CCc1nn(C)c2c1C(c1ccccc1)NCC(=O)N2C.Cl (stereo not given)	> 40	63	
CC(=O)OC1N=C(c2ccccc2F)c2c(C)nn(C)c2N(C)C1=O (stereo not given)	20	8	
Cc1nn(C)c2c1C(c1cccc(Cl)c1)=NCC(=O)N2	> 40	> 500	
Cc1nn(C)c2c1C(c1ccccc1F)=NCC(=O)N2C.Cl [ZOLAZEPAM HYDROCHLORIDE]	0.32	2	
Cc1nn(C)c2c1C(c1ccccc1)=NC(O)C(=O)N2C (stereo not given)	5	16	
Cc1nn(C)c2c1C(c1ccccc1F)=NC(O)C(=O)N2C (stereo not given)	2.5	4	
COc1nn(C)c2c1C(c1ccccc1F)=NCC(=O)N2C	10	8	
Cc1nn(C)c2c1C(c1ccccc1F)NCC(=O)N2C.Cl (stereo not given)	1.2	4	
CCCCn1nc(C)c2c1N(C)C(=O)CN=C2c1ccccc1Cl	40	16	
CC(C)c1nn(C)c2c1C(c1ccccc1Cl)=NCC(=O)N2	> 40	125	
Cc1nn(C)c2c1C(c1ccccc1Cl)=NCC(=O)N2C.Cl	2.5	4	
CCc1nn(C)c2c1C(c1ccccc1Cl)=NCC(=O)N2	2.5	32	
CCc1nn(C)c2c1C(c1ccccc1F)=NCC(=O)N2.Cl	1.25	2	
Cc1nn(C)c2c1C(c1ccccc1F)=NCC(=O)N2	2.5	8	
Cc1nn(C)c2c1C(c1c(F)cccc1F)=NCC(=O)N2C	20	2	
Cc1nn(C)c2c1C(c1ccccc1Cl)=NCC(=O)N2	2.5	16	
CCCCc1nn(C)c2c1C(c1ccccc1Cl)=NCC(=O)N2C	> 40	125	

SMILES	minimal effective dose (Rattus norvegicus [1]) [mg/kg]	minimal effective dose (Rattus norvegicus [2]) [mg/kg]	Ratio (Rattus norvegicus [3])
Cc1nn(C(C)C)c2c1C(c1ccccc1Cl)=NCC(=O)N2	20	16	
CCc1nn(C)c2c1C(c1cccc(F)c1)=NCC(=O)N2C	10	32	
Cc1nn(C)c2c1C(c1ccccc1)=NCC(=O)N2C.Cl	2.5	4	
CCCCn1nc(C)c2c1NC(=O)CN=C2c1ccccc1Cl	40	32	
CCCn1nc(C)c2c1N(C)C(=O)CN=C2c1ccccc1Cl	2.5	16	
CCn1nc(C)c2c1N(C)C(=O)CN=C2c1ccccc1Cl	0.63	4	
CCCCc1nn(C)c2c1C(c1ccccc1Cl)=NCC(=O)N2	> 40	> 500	
CCc1nn(C)c2c1C(c1ccccc1F)=NCC(=O)N2	1.25	2	
Cc1nn(C2CCCCC2)c2c1C(c1ccccc1Cl)=NCC(=O)N2	> 40	> 500	
Cl.Cn1ncc2c1NC(=O)CN=C2c1ccccc1	> 80	250	
Cc1nn(C)c2c1C(c1ccccc1[N+](=O)[O-])=NCC(=O)N2C		8	
CCc1nn(C)c2c1C(c1ccccc1)=NCC(=O)N2	2.5	8	
Cc1nn(C)c2c1C(c1ccccc1)=NCC(=O)N2	10	16	
CCCn1nc(C)c2c1NC(=O)CN=C2c1ccccc1Cl	40	63	
Cc1nn(-c2ccccc2)c2c1C(c1ccccc1Cl)=NCC(=O)N2	20	500	
CC(C)c1nn(C)c2c1C(c1ccccc1Cl)=NCC(=O)N2C	> 40	63	
Cc1nn(C)c2c1C(c1ccccc1N=[N+]=[N-])=NCC(=O)N2C	> 40	63	
CCn1nc(C)c2c1NC(=O)CN=C2c1ccccc1Cl	5	8	
CCn1nc(C)c2c1N(C)C(=O)CN=C2c1ccccc1F	1.25	4	
CCc1nn(C)c2c1C(c1ccc(F)cc1)=NCC(=O)N2	> 40	> 500	

SMILES	minimal effective dose (Rattus norvegicus [1]) [mg/kg]	minimal effective dose (Rattus norvegicus [2]) [mg/kg]	Ratio (Rattus norvegicus [3])
CCCc1nn(C)c2c1C(c1ccccc1Cl)=NCC(=O)N2	> 40	250	
Cc1nn(C)c2c1C(c1ccccc1F)=NCC(=O)N2C [ZOLAZEPAM]	0.32	2	5
CCCCn1nc(C)c2c1NC(=O)CN=C2c1cccc(Cl)c1	> 40	> 500	
Cc1nn(C)c2c1C(c1cccs1)=NCC(=O)N2	40		
CN1C(=O)CN=C(c2ccccc2)c2cc(Cl)ccc21 [DIAZEPAM]	1.25	4	
CCc1nn(C)c2c1C(c1ccccc1F)=NCC(=O)N2C	1.25	4	
Cc1nn(C)c2c1C(c1ccccc1)=NCC(=O)N2C	2.5	4	
C=CCN1C(=O)CN=C(c2ccccc2Cl)c2c(C)nn(CC)c21	> 40	63	
CCN1C(=O)CN=C(c2ccccc2F)c2c(C)nn(C)c21	5	32	
Cn1nc(Cl)c2c1NC(=O)CN=C2c1ccccc1	40	63	
CCc1nn(C)c2c1C(c1cccc(F)c1)=NCC(=O)N2	20	32	
CCc1nn(C)c2c1C(c1ccccc1)=NCC(=O)N2C	1.25	4	
Cc1nn(C)c2c1C(c1ccccc1)=[N+]([O-])CC(=O)N2C	> 40	63	
Cc1nn(C)c2c1C(c1ccccc1Br)=NCC(=O)N2C	5	4	
Cc1nn(C2CCCCC2)c2c1C(c1ccccc1Cl)=NCC(=O)N2C	> 40	63	
Cc1nn(-c2ccccc2)c2c1C(c1ccccc1)=NCC(=O)N2	> 40	> 500	
CCc1nn(C)c2c1C(c1ccccc1Cl)=NCC(=O)N2C	0.63	16	
CCc1nn(C)c2c1C(c1ccc(F)cc1)=NCC(=O)N2C	> 40	> 500	

Reference: ChEMBL document CHEMBL3272205, “Pyrazolodiazepines. 2. 4-Aryl-1,3-dialkyl-6,8-dihydropyrazolo[3,4-e] [1,4]diazepin-7(1H)-ones as antianxiety and anticonvulsant agents” (1977)
